Test results from patent US6288113A, “Angiogenesis promoters” (Welfide Corporation, priority 1997, dated 2001).

What was measured:
Type in all cases: in vivo
[1] = system: angiogenesis; assay: Rat sponge model, hemoglobin content of sponge (Experimental Example 1)
Method: (§1) As the promoter of the present invention, the AS-containing lipid emulsion of Example 4 was diluted with a 10% lipid emulsion (Intralipos®, manufactured by the Green Cross Corporation, produced and sold by Yoshitomi Pharmaceutical Industries, Ltd. since April 1, 1998) and used. For the vehicle administration control group, the above-mentioned 10% lipid emulsion alone was used.
(§2) Rats were anesthetized and the dorsal median line was incised for about 1 cm and an air pocket was made subcutaneously at about 2.5 cm toward the tail side with a Kocher clamp. A hemostatic gelatin sponge (Spongel®, 1.0×1.0×0.5 cm; manufactured by Yamanouchi Pharmaceutical Co., Ltd.) infiltrated with physiological saline was implanted therein to prepare rat sponge models.
(§3) The incisive region was sutured, antisepticized and intramulscular injection of an antibiotic was given, after which the rats were returned to the breeding cages. Each preparation was bolus administered via the tail vein once a day from the day of sponge implanting to day 4. After 4 days from the implanting, 8 rats per group were sacrificed. The back was opened, and the surrounding tissue was removed trying not to damage the implanted sponge and the surface of the sponge was photographed. All the sponges were taken out and a 0.1M aqueous ammonia (2 ml) was added. The sponges were stood for 4 hr to extract hemoglobin in the sponge. Hemoglobin in the extract (100 μl) was quantitated using an assay kit (hemoglobin B-TESTWAKO; manufactured by Wako Pure Chemical Industries, Ltd.). The amount of the hemoglobin in the sponge was calculated and used as the index of angiogenesis.
For the evaluation of the angiogenic effect, a multiple comparison test by Dunnett method was performed to examine significant difference, using the vehicle administration group as a control. The significance was ascribed at less than 5% risk rate.

[2] = system: angiogenesis; assay: Rat sponge model, observation of photograph of sponge surface (Experimental Example 1); settings: AS administration group; after 4 days; visual observation
Method: as §1, §2
as §3, with “The back was opened, and the surrounding tissue was removed trying not to damage the implanted sponge and the surface of the sponge was photographed. All the sponges were taken out and a 0.1M aqueous ammonia (2 ml) was added. The sponges were stood for 4 hr to extract hemoglobin in the sponge.” left out

[3] = system: angiogenesis by b-FGF; assay: Rat sponge model with b-FGF, hemoglobin content of sponge (Experimental Example 2); settings: for Hemoglobin in sponge at 4 days after implanting: mean ± standard error
Method: as §1, with “In the same manner as in Experimental Example 1, as” for “As”, “Apr.” for “April”
(§4) Using a hemostatic gelatin sponge infiltrated with physiological saline containing 0.1% BSA (bovine serum albumin) or b-FGF solution (b-FGF 1 mg/ml solution, 100 μl, diluted 10-fold with physiological saline containing 0.1% BSA), and in the same manner as in Experimental Example 1, rat sponge models (6-8 animals per group) were prepared. The vehicle and AS were bolus administered via the tail vein once a day at the volume of 1 ml/kg from the day of sponge implanting to day 4. After 4 days from the implanting, the surface of the sponge was photographed, and the amount of the hemoglobin in the sponge was calculated in the same manner as in Experimental Example 1.
For the evaluation of the angiogenic effect, a multiple comparison test (group 1 versus groups 2, 3) by Dunnett method was performed to examine significant difference, using the vehicle alone administration group (BSA-containing physiological saline in sponge +10% lipid emulsion intravenous injection) as a control. For the evaluation of the relationship between AS and b-FGF, an unpaired t-test (group 2 versus group 3) was performed using the b-FGF alone administration group as a control to examine significant difference. The significance was ascribed at less than 5% risk rate.

[4] = system: angiogenesis by b-FGF; assay: Rat sponge model with b-FGF, observation of photograph of sponge surface (Experimental Example 2)
Method: as §1, with “In the same manner as in Experimental Example 1, as” for “As”, “Apr.” for “April”
as §4

Compound	Hemoglobin in sponge at 4 days after implanting ([1]; AS 3 μg/kg i.v. bolus via tail vein once a day to day 4, mean ± standard error, P < 0.05 vs vehicle 1.5 ± 0.9 (Dunnett)) [mg/sponge]	hemoglobin content compared with the vehicle administration group ([1]; AS 3 μg/kg i.v. bolus, consecutive, result in words)	promotion of angiogenesis ([1]; summary of hemoglobin content and photograph observation, Experimental Example 1)	blood vessels on sponge surface (FIG. 2) [2]	angiogenesis promoting effect by b-FGF ([3]; AS and b-FGF co-administered, summary)	hemoglobin content of sponge as compared with the b-FGF alone administration group ([3]; AS and b-FGF co-administration group, result in words)	Hemoglobin in sponge at 4 days after implanting ([3]; group 3: AS 3 μg/kg i.v. with b-FGF 1 μg/sponge, n 7, P < 0.05 vs b-FGF alone (unpaired t-test)) [mg/sponge]	blood vessels on sponge surface (FIG. 5) ([4]; AS and b-FGF co-administration group (group 3))	hemoglobin content of sponge ([3]; b-FGF alone administration group, after 4 days, result in words)	Hemoglobin in sponge at 4 days after implanting ([3]; group 2: b-FGF 1 μg/sponge, 10% lipid emulsion i.v. 1 ml/kg, n 8, vehicle alone 6.5 ± 0.7) [mg/sponge]	blood vessels on sponge surface (FIG. 4) ([4]; b-FGF administration group (group 2))
CCCCC[C@H](O)/C=C/[C@@H]1C(CCCCCCC(=O)OCCCC)=C(OC(=O)CCC)C[C@H]1O [AS, butyl 9-butyryloxy-11α,15S-dihydroxyprosta-8,13E-dien-1-oate]	4.4 ± 0.8	increased the hemoglobin content compared with the vehicle administration group and a significant difference was observed	promoted angiogenesis	a noticeable blood vessel network that allows visual observation was found, showing superior angiogenesis	potentiated	increased significantly	20.7 ± 3.1	more noticeable formation of a blood vessel network was observed, with larger blood vessel diameters			
b-FGF: growth factor, basic fibloblast growth factor									increased	11.8 ± 0.9	a number of blood vessels were observed on the surface of the sponge, showing formation of a blood vessel network
